In the NIST ThermoML archive (doi:10.1021/je049930e):

Assay: wn = mass fraction of the nth substance listed
Details: Liquid, Vibrating tube method

CC(=O)c1ccccc1 [acetophenone] + CCCCCCCCO
mass density [kg/m3]
Details | w2 = 0.1075 | w2 = 0.2132 | w2 = 0.3172 | w2 = 0.4195 | w2 = 0.5201 | w2 = 0.6192 | w2 = 0.7166 | w2 = 0.8126 | w2 = 0.907
318.15 K, 30000 kPa | 997 | 972.7 | 949.7 | 928.6 | 908.7 | 890 | 872.4 | 856 | 840.6
318.15 K, 35000 kPa | 999.5 | 975.4 | 952.4 | 931.4 | 911.5 | 892.7 | 875.2 | 858.9 | 843.4
318.15 K, 40000 kPa | 1002.2 | 978 | 955.1 | 934 | 914.2 | 895.4 | 877.9 | 861.6 | 846.1
318.15 K, 45000 kPa | 1004.8 | 980.7 | 957.7 | 936.8 | 916.9 | 898.1 | 880.5 | 864.3 | 848.8
318.15 K, 50000 kPa | 1007.3 | 983.2 | 960.3 | 939.3 | 919.5 | 900.7 | 883.1 | 866.8 | 851.3
348.15 K, 100 kPa | 952.5 | 928.4 | 905.7 | 884.7 | 865.1 | 846.9 | 829.6 | 813.7 | 798.4
348.15 K, 10000 kPa | 959.7 | 935.9 | 913.1 | 892.4 | 872.8 | 854.6 | 837.4 | 821.5 | 806.4
348.15 K, 15000 kPa | 963.2 | 939.4 | 916.7 | 896 | 876.5 | 858.3 | 841.1 | 825.2 | 810.2
348.15 K, 20000 kPa | 966.6 | 942.8 | 920.1 | 899.5 | 880 | 861.8 | 844.6 | 828.7 | 813.8
348.15 K, 25000 kPa | 969.9 | 946.1 | 923.5 | 902.9 | 883.4 | 865.3 | 848 | 832.1 | 817.2
348.15 K, 30000 kPa | 973.1 | 949.2 | 926.7 | 906.2 | 886.6 | 868.5 | 851.3 | 835.4 | 820.4
348.15 K, 35000 kPa | 976.1 | 952.3 | 929.8 | 909.3 | 889.6 | 871.7 | 854.5 | 838.6 | 823.6
348.15 K, 40000 kPa | 979.2 | 955.3 | 932.9 | 912.3 | 892.8 | 874.8 | 857.6 | 841.7 | 826.7
348.15 K, 45000 kPa | 982 | 958.2 | 935.9 | 915.3 | 895.9 | 877.8 | 860.5 | 844.6 | 829.7
348.15 K, 50000 kPa | 984.8 | 961 | 938.6 | 918.2 | 898.7 | 880.7 | 863.4 | 847.5 | 832.5
